Laboratory results: US10118916B2, “Modulators of cystic fibrosis transmembrane conductance regulator protein” (AbbVie S.à.r.l., priority 2016, dated 2018)
pEC50: −log10 of the molar value.

Molecular target: T1, F508delCFTR (Homo sapiens, UniProt P13569, DEL508-508)
T1 construct: expressed in transfected cells; host or cells: CFBE41o- (human lung derived epithelial cell line), doxycycline-inducible
Assay: Cell Surface Expression-Horse Radish Peroxidase (CSE-HRP) assay
Type: cell-based
Settings: CFBE41o-F508delCFTR-HRP cells; for pEC50: F508delCFTR cell surface expression, luminescence, 18-24 hours at 33° C., highest concentration 20 μM; for Maximum % activity: maximum at any tested concentration, normalized to on-plate positive control (3 μM)
Text: Cell Surface Expression-Horse Radish Peroxidase (CSE-HRP) Assay:
A cellular assay for measuring the F508delCFTR cell surface expression after correction with test compounds was developed in human lung derived epithelial cell line (CFBE41o-) (Veit G et al, (2012) Mol Biol Cell. 23(21): 4188-4202). This was achieved by expressing the F508delCFTR mutation along with a horseradish peroxidase (HRP) in the fourth exofacial loop and then measuring the HRP activity using luminescence readout from these cells, CFBE41o-F508delCFTR-HRP, that were incubated overnight with the test corrector compounds. Briefly, for this primary assay, the CFBE41o-F508delCFTR-HRP cells were plated in 384-well plates (Greiner Bio-one; Cat 781080) at 4,000 cells/well along with 0.5 μg/mL doxycycline to induce the F508delCFTR-HRP expression and further incubated at 37° C., 5% CO2 for 72 hours. The test compounds were then added at the required concentrations and further incubated for 18-24 hours at 33° C. The highest concentration tested was 20 μM with an 8-point concentration response curve using a 3-fold dilution. Three replicate plates were run to determine one EC50. All plates contained negative controls (dimethyl sulfoxide, DMSO) and positive controls (3 μM of 3-[(2R,4R)-4-({[1-(2,2-difluoro-1,3-benzodioxol-5-yl)cyclopropyl]carbonyl}amino)-7-methoxy-3,4-dihydro-2H-chromen-2-yl]benzoic acid) as well as on-plate concentration response of the positive control. Post incubation, the plates were washed 5× times with Dulbecco's phosphate buffered saline (DPBS), followed by the addition of the HRP substrate, luminol (50 μL), and measuring the HRP activity using luminescence readout on EnVision® Multilabel Plate Reader (Perkin Elmer; product number 2104-0010). The raw counts from the experiment are analyzed using Accelrys® Assay Explorer v3.3.
Z′ greater than 0.5 was used as passing quality control criteria for the plates.
The Z′ is defined as: 1−[3*SDPositive Control+3*SDNegative Control/Absolute(MeanPositive Control−MeanNegative Control)] wherein “SD” is standard deviation.
The % activity measured at each of the 8 test concentrations of the test compound was normalized to the on-plate positive control using the following formula: % activity=[(test compound response−DMSO response)/(positive control response−DMSO response)]*100
The maximum % activity achieved for the test compound at any tested concentration is presented in Table 1 along with the EC50 calculated using the following general sigmoidal curve with variable Hill slope equation (described as Model 42 in the Accelrys® Assay Explorer v3.3 software): y=(a−d)/(1+(x/c)^b)+d
General sigmoidal curve with concentration, response, top, bottom, EC50 and Hill slope.
This model describes a sigmoidal curve with an adjustable baseline, a. The equation can be used to fit curves where response is either increasing or decreasing with respect to the independent variable, “x”. • “x” is a concentration of drug under test. • “y” is the response. • “a” is the maximum response, and “d” is the minimum response • “c” is the inflection point (EC50) for the curve. That is, “y” is halfway between the lower and upper asymptotes when x=c. • “b” is the slope-factor or Hill coefficient. The sign of b is positive when the response increases with increasing dose and is negative when the response decreases with increasing dose (inhibition).

T1 sequence (P13569 with tags, fused parts or gaps DEL508-508): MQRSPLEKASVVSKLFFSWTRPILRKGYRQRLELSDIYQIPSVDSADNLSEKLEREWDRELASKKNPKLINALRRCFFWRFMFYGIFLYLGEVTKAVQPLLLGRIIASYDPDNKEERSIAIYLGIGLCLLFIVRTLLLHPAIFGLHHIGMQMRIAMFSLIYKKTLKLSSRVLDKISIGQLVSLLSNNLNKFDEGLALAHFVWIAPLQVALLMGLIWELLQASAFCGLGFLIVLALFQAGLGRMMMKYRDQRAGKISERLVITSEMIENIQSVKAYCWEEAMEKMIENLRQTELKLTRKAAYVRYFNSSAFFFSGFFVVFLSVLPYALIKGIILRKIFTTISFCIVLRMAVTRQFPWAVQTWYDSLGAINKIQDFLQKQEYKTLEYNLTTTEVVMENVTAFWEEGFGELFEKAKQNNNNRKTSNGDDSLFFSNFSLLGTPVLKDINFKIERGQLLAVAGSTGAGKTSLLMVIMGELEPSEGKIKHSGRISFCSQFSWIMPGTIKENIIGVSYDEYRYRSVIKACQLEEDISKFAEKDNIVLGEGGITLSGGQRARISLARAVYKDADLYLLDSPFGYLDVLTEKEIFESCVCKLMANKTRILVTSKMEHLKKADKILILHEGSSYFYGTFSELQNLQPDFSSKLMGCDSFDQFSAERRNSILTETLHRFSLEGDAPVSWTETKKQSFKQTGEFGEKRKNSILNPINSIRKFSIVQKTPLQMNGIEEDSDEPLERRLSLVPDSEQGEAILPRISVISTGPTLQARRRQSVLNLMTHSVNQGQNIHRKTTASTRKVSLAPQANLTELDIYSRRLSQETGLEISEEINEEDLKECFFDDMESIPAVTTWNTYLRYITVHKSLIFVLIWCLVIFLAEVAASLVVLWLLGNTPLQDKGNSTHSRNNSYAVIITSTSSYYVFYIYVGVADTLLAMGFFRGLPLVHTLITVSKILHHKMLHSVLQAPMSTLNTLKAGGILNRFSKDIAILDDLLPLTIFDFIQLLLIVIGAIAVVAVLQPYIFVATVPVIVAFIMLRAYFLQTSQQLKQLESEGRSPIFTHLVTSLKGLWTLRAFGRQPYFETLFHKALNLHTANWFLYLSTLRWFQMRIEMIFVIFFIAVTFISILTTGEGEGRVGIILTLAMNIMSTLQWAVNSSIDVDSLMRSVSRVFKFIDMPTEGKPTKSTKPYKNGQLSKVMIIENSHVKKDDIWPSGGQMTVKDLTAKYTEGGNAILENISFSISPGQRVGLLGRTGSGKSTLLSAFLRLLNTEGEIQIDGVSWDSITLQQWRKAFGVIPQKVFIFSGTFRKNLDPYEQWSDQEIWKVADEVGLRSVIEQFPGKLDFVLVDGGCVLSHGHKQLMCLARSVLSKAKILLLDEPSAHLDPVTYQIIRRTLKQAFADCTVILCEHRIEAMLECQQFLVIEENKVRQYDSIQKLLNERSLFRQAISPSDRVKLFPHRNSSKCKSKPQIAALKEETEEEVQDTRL

pEC50 | Maximum % activity [%] | SMILES
6.05 | 51.1 | COc1ccc2c(c1)OC(c1ccc(OC)c(OC)c1)CC2NC(=O)C1(c2ccc(F)cc2)CC1 (stereo not drawn) [Example 20, N-[2-(3,4-dimethoxyphenyl)-7-methoxy-3,4-dihydro-2H-1-benzopyran-4-yl]-1-(4-fluorophenyl)cyclopropane-1-carb oxamide]
5.94 | 77.8 | COc1ccc2c(c1)OC(c1ccc(OC)c(OC)c1)CC2NC(=O)C1(c2ccc(Cl)cc2)CC1 (stereo not drawn) [Example 21, 1-(4-chlorophenyl)-N-[2-(3,4-dimethoxyphenyl)-7-methoxy-3,4-dihydro-2H-1-benzopyran-4-yl]cyclopropane-1-carboxamide]
6.00 | 56.6 | COc1ccc2c(c1)OC(c1ccc(OC)c(OC)c1)CC2NC(=O)C(C)(C)c1ccc(Cl)cc1 (stereo not drawn) [Example 22, 2-(4-chlorophenyl)-N-[2-(3,4-dimethoxyphenyl)-7-methoxy-3,4-dihydro-2H-1-benzopyran-4-yl]-2-methylpropanamide]
6.64 | 54.0 | COc1ccc(C(C)(C)C(=O)NC2CC(c3ccc(OC)c(OC)c3)Oc3cc(OC)ccc32)cc1 (stereo not drawn) [Example 23, N-[2-(3,4-dimethoxyphenyl)-7-methoxy-3,4-dihydro-2H-1-benzopyran-4-yl]-2-(4-methoxyphenyl)-2-methylpropanamide]
5.94 | 38.3 | COc1ccc(C(C)(C)C(=O)N[C@H]2C[C@H](c3cccc(C(=O)O)c3)Oc3cc(OC)ccc32)cc1 [Example 24, 3-{(2R,4S)-7-methoxy-4-[2-(4-methoxyphenyl)-2-methylpropanamido]-3,4-dihydro-2H-1-benzopyran-2-yl}benzoic acid]
6.64 | 39.5 | COc1ccc(C(C)(C)C(=O)N[C@@H]2C[C@H](c3cccc(C(=O)O)c3)Oc3cc(OC)ccc32)cc1 [Example 25, 3-{(2R,4R)-7-methoxy-4-[2-(4-methoxyphenyl)-2-methylpropanamido]-3,4-dihydro-2H-1-benzopyran-2-yl}benzoic acid]
< 4.70 | 1.6 | C[C@]1(C(=O)N[C@@H]2C[C@H](c3cccc(C(=O)O)c3)Oc3ccccc32)Cc2cc(Cl)ccc2O1 [Example 26, 3-[(2R,4R)-4-{[(2R)-5-chloro-2-methyl-2,3-dihydro-1-benzofuran-2-carbonyl]amino}-3,4-dihydro-2H-1-benzopyran-2-yl]benzoic acid]
< 4.70 | 7.9 | C[C@@]1(C(=O)N[C@@H]2C[C@H](c3cccc(C(=O)O)c3)Oc3ccccc32)Cc2cc(Cl)ccc2O1 [Example 27, 3-[(2R,4R)-4-{[(2S)-5-chloro-2-methyl-2,3-dihydro-1-benzofuran-2-carbonyl]amino}-3,4-dihydro-2H-1-benzopyran-2-yl]benzoic acid]
5.60 | 21.2 | COC(=O)c1cccc([C@H]2C[C@@H](NC(=O)[C@]3(C)CCc4cc(OC)ccc43)c3ccccc3O2)c1 [Example 28, methyl 3-[(2R,4R)-4-{[(1R)-5-methoxy-1-methyl-2,3-dihydro-1H-indene-1-carbonyl]amino}-3,4-dihydro-2H-1-benzopyran-2-yl]benzoate]
5.84 | 37.8 | COC(=O)c1cccc([C@H]2C[C@@H](NC(=O)[C@]3(C)CCc4cc(OC)ccc43)c3ccc(OC)cc3O2)c1 [Example 29, methyl 3-[(2R,4R)-7-methoxy-4-{[(1R)-5-methoxy-1-methyl-2,3-dihydro-1H-indene-1-carbonyl]amino}-3,4-dihydro-2H-1-benzopyran-2-yl]benzoate]
6.02 | 48.4 | COC(=O)c1cccc([C@H]2C[C@@H](NC(=O)[C@@]3(C)CCc4cc(OC)ccc43)c3ccccc3O2)c1 [Example 30, methyl 3-[(2R,4R)-4-{[(1S)-5-methoxy-1-methyl-2,3-dihydro-1H-indene-1-carbonyl]amino}-3,4-dihydro-2H-1-benzopyran-2-yl]benzoate]
6.40 | 63.6 | COC(=O)c1cccc([C@H]2C[C@@H](NC(=O)[C@@]3(C)CCc4cc(OC)ccc43)c3ccc(OC)cc3O2)c1 [Example 31, methyl 3-[(2R,4R)-7-methoxy-4-{[(1S)-5-methoxy-1-methyl-2,3-dihydro-1H-indene-1-carbonyl]amino}-3,4-dihydro-2H-1-benzopyran-2-yl]benzoate]
5.92 | 20.4 | COc1ccc2c(c1)CC[C@@]2(C)C(=O)N[C@@H]1C[C@H](c2cccc(C(=O)O)c2)Oc2ccccc21 [Example 32, 3-[(2R,4R)-4-{[(1R)-5-methoxy-1-methyl-2,3-dihydro-1H-indene-1-carbonyl]amino}-3,4-dihydro-2H-1-benzopyran-2-yl]benzoic acid]
6.57 | 25.9 | COc1ccc2c(c1)CC[C@@]2(C)C(=O)N[C@@H]1C[C@H](c2cccc(C(=O)O)c2)Oc2cc(OC)ccc21 [Example 33, 3-[(2R,4R)-7-methoxy-4-{[(1R)-5-methoxy-1-methyl-2,3-dihydro-1H-indene-1-carbonyl]amino}-3,4-dihydro-2H-1-benzopyran-2-yl]benzoic acid]
6.39 | 52.6 | COc1ccc2c(c1)CC[C@]2(C)C(=O)N[C@@H]1C[C@H](c2cccc(C(=O)O)c2)Oc2ccccc21 [Example 34, 3-[(2R,4R)-4-{[(1S)-5-methoxy-1-methyl-2,3-dihydro-1H-indene-1-carbonyl]amino}-3,4-dihydro-2H-1-benzopyran-2-yl]benzoic acid]
6.70 | 57.5 | COc1ccc2c(c1)CC[C@]2(C)C(=O)N[C@@H]1C[C@H](c2cccc(C(=O)O)c2)Oc2cc(OC)ccc21 [Example 35, 3-[(2R,4R)-7-methoxy-4-{[(1S)-5-methoxy-1-methyl-2,3-dihydro-1H-indene-1-carbonyl]amino}-3,4-dihydro-2H-1-benzopyran-2-yl]benzoic acid]
6.17 | 31.4 | COc1ccc2c(c1)O[C@@H](c1cccc(C(=O)O)c1)C[C@H]2NC(=O)C1(C)CCc2cc(Cl)ccc21 (stereo partly drawn) [Example 36, 3-{(2R,4R)-4-[(5-chloro-1-methyl-2,3-dihydro-1H-indene-1-carbonyl)amino]-7-methoxy-3,4-dihydro-2H-1-benzopyran-2-yl}benzoic acid]
< 4.70 | 6.1 | COc1ccc2c(c1)O[C@@H](c1cccc(C(=O)O)c1)C[C@H]2NC(=O)C(C)(C)c1ccc(OCC(C)C)cc1 [Example 37, 3-[(2R,4R)-7-methoxy-4-{2-methyl-2-[4-(2-methylpropoxy)phenyl]propanamido}-3,4-dihydro-2H-1-benzopyran-2-yl]benzoic acid]
6.06 | 41.7 | COc1ccc2c(c1)O[C@@H](c1cccc(C(=O)O)c1)C[C@H]2NC(=O)C(C)(C)c1ccc2c(c1)OCCO2 [Example 39, 3-{(2R,4R)-4-[2-(2,3-dihydro-1,4-benzodioxin-6-yl)-2-methylpropanamido]-7-methoxy-3,4-dihydro-2H-1-benzopyran-2-yl}benzoic acid]
5.77 | 81.0 | COc1ccc2c(c1)O[C@@H](c1cccc(C(=O)O)c1)C[C@H]2NC(=O)C(C)(C)c1ccc(OC(F)(F)F)cc1 [Example 40, 3-[(2R,4R)-7-methoxy-4-{2-methyl-2-[4-(trifluoromethoxy)phenyl]propanamido}-3,4-dihydro-2H-1-benzopyran-2-yl]benzoic acid]
5.78 | 62.2 | COc1ccc2c(c1)O[C@@H](c1cccc(C(=O)O)c1)C[C@H]2NC(=O)C1(c2ccc(OC(F)(F)F)cc2)CC1 [Example 41, 3-[(2R,4R)-7-methoxy-4-({1-[4-(trifluoromethoxy)phenyl]cyclopropane-1-carbonyl}amino)-3,4-dihydro-2H-1-benzopyran-2-yl]benzoic acid]
